Laboratory results: US20220177511A1, “SERIES OF HALOGENATED TETRACYCLIC TRITERPENE DERIVATIVES AND THEIR PREPARATION AND APPLICATION” (SHANGHAI KING-X BIOTECH CO., LTD, priority 2019, published 2022)
Like-named read-outs stand apart in the source and are kept apart here.

Assay: Plasma pharmacokinetics after single intragastric administration in rats
Type: in vivo, SD rat
Settings: for AUC0-t / AUC(0-inf) / CL/F / Cmax / Tmax / half-life / MRT inf / Vd/F: single gavage 10 mg/kg, Mean ± SD; for bioavailability: SD, single gavage 10 mg/kg vs intravenous 2 mg/kg; for MRT inf: read-out: MRT0-∞; for Vd/F: read-out: Vz/F
Procedure: Strain: SD rat; Gender: half male and female. Weight: about 200-250 g. Source: Shanghai Slac Laboratory Animal Co., Ltd. Laboratory Animal Production License No.: SOCK (Shanghai) 2017-0005. Laboratory Animal Use License Certificate number: SYXK (Shanghai) 2014-0018. Breeding: constant temperature purification and ventilation animal room, 20-26° C., free food and water, humidity 40-70%, light for 12 h.
Route A: single oral administration. Volume: calculated according to 10 mL/kg body weight. Preparation: an appropriate amount of compound 2 is added to a small amount of 0.5% CMC-Na and grinded, and another portion of 0.5% CMC-Na was added to form a suspension.
12 SD rats were divided into 2 groups, 6 rats in each group, […]. Fasting for 12 h before administration, free drinking water. The doses of 10 mg/kg were administered as a single gavage, and the doses of 2 mg/kg were administered as a single intravenous injection. About 100 μL orbital blood was collected before administration, 3 min, 10 min, 20 min, 30 min, 1 h, 2 h, 3 h, 4 h, 6 h, 8 h, 11 h, and 24 h after administration. For intravenous administration, orbital blood was collected before administration, 3 min, 8 min, 15 min, 30 min, 1 h, 2 h, 3 h, 4 h, 6 h, 8 h, 11 h, 24 h after injection. The blood was anticoagulated with 1% heparin, centrifuged at 8000 rpm for 4 min, and the plasma was separated. Store at −20° C. High concentration samples were diluted with blank plasma. 2.1.4 Determination method of plasma samples 2.1.4.1 Instrument (LC-MS/MS)
Liquid chromatography system: Ultimate3000 liquid chromatography system (including Ultimate3000 ternary infusion pump, Ultimate3000 column oven, Ultimate3000 autosampler and Ultimate3000 vacuum degasser), Dionex Corporation. MS/MS system: 4000 Q-Trap tandem mass spectrometer with electrospray ionization source (ESI source), AB Company
Column: Athena C18-WP 100A (2.1×50 mm, 5 μm); Injection volume: 10 μL; Mobile phase: A: acetonitrile; C: 0.05% ammonia, gradient elution (see table below); Flow rate: 0.3 mL/min
The ion source is electrospray ionization source (ESI), the drying gas (N2) temperature is 500° C., the electrospray voltage is −4500 V, the detection method is negative ion detection, the scanning method is the […] (MRM) method and the scanning time is 0.15 s. The mass spectrometry parameters are as follows:
50 μL of rat whole blood was added with 2.5 μL of internal standard working solution (250 ng/mL tolbutamide). 150 μL of acetonitrile was used to precipitate the proteins. The sample was centrifuged at 13,000 rpm and 4° C. for 5 min. The upper organic phase was taken and filtered with a 0.22 μM microporous membrane, which was then analyzed by LC-MS/MS. […]

[1] = both sexes, rat, plasma, po, all rats (♂ and ♀)
[2] = female, rat, plasma, po, rats ♀

For `CC(C)(O)[C@@H]1CC[C@](C)([C@H]2[C@@H](O)C[C@@]3(C)[C@@H]4C[C@H](O)[C@H]5C(C)(C)C(F)(F)CC[C@@]56C[C@@]46CC[C@]23C)O1` [Compound 2, (2aR,3R,4S,5aS,5bS,7S,7aR,11aR,12aS)-9,9-difluoro-3-((2R,5S)-5-(2-hydroxypropan-2-yl)-2-methyltetrahydrofuran-2-yl)-2a,5a,8,8-tetramethyltetradecahydro-1H,12H-cyclopenta[a]cyclopropa[e]phenanthrene-4,7-diol], the AUC0-t (all rats (♂ and ♀), 10 mg/kg) was 1916 ng·h/mL, the bioavailability (both sexes, rat, plasma, po, all rats (♂ and ♀), read-out: F (mean absolute bioavailability)) was 22% and the AUC(0-inf) [1] was 2450 ± 3070 ng·h/mL. For the same molecule, the CL/F [1] was 140 mL/min/kg, the Cmax [1] was 323 ng/mL and the Tmax [1] was 2.17 h. For the same molecule, the half-life [1] was 2.89 h, the AUC0-t (both sexes, rat, plasma, po, all rats (♂ and ♀), read-out: AUC0-t) was 1920 ng·h/mL and the MRT inf [1] was 4.4 ± 1.28 h. For the same molecule, the Vd/F [1] was 27.9 ± 19 L/kg, the bioavailability (female, rat, plasma, po, rats ♀, read-out: F (absolute bioavailability)) was 28.4% and the AUC(0-inf) [2] was 4040 ± 3990 ng·h/mL. It also gave a CL/F [2] of 71.2 mL/min/kg, a Cmax [2] of 459 ± 277 ng/mL and a Tmax [2] of 2.33 ± 0.58 h. The half-life [2] was 3.64 ± 2.54 h, the AUC0-t (female, rat, plasma, po, rats ♀, read-out: AUC0-t) was 3000 ± 2430 ng·h/mL and the MRT inf [2] was 5.01 ± 1.71 h. The Vd/F [2] was 15.8 ± 9.24 L/kg, the bioavailability (male, rat, plasma, po, rats ♂, read-out: F (absolute bioavailability)) was 15.6% and the AUC(0-inf) (male, rat, plasma, po, rats ♂) was 859 ± 297 ng·h/mL. It also gave a CL/F (male, rat, plasma, po, rats ♂) of 208 mL/min/kg, a Cmax (male, rat, plasma, po, rats ♂) of 187 ± 37 ng/mL and a Tmax (male, rat, plasma, po, rats ♂) of 2 ± 1 h. It also gave a half-life (male, rat, plasma, po, rats ♂) of 2.14 ± 0.64 h, an AUC0-t (male, rat, plasma, po, rats ♂, read-out: AUC0-t) of 831 ng·h/mL and an MRT inf (male, rat, plasma, po, rats ♂) of 3.78 ± 0.24 h. For the same molecule, the Vd/F (male, rat, plasma, po, rats ♂) was 40 ± 19.5 L/kg.
